Columns and labels:
Caco-2 cells = test: MTT cytotoxicity assay toward Caco-2 cells; format: cell-based; settings: chosen for transport study
[1] = Stability in plasma samples and tissue homogenates of rabbits; format: physicochemical
Experimental: The precision of the assay was determined for the quality control (QC) plasma and tissue […] Intraday precision and accuracy were determined via repeated analysis of the QC plasma and tissue samples within one day (n = 5). Interday precision and accuracy were determined via repeated analysis on five consecutive days. The concentration of each sample was determined using the prepared calibration curve and analyzed on the same day. All stabilities were evaluated at different concentration levels. Short-term stability of NGR1, GRg1, and GRe were assessed by analyzing QC samples kept at 4°C for 4–24 h. Freeze-thaw stability was evaluated at three consecutive freeze-thaw cycles. Long-term stability was studied by analyzing samples during a period of 8 weeks of storage at −70°C.
The stability studies were performed by evaluating small variations in three different conditions.

[2] = Tissue distribution study in rabbits after oral Panax notoginseng extract with or without Borneol; format: in vivo, New Zealand rabbits
Experimental: Frozen plasma and tissue samples were thawed in a water bath at 37°C and were then vortexed followed by centrifuging at 5000 r·min^−1 for 5 min. An aliquot of 1.0 mL of the supernatant from each sample was loaded onto C18 Bond Elute Solid phase extraction (SPE) cartridges (1000 mg, 1 cc reservoir, Varian, Harbor City, CA, USA) pretreated with 2.0 mL hexane, isopropanol, methanol, and water, sequentially. The SPE cartridges were then washed with 1.0 mL water, 20% methanol/water solution, 40% methanol/water solution, and 60% methanol/water solution, sequentially. Finally, analytes were eluted twice with 1.0 mL of 70% methanol/water solution. The eluant was evaporated to dryness under nitrogen. The residues were then reconstituted in 1.0 mL mobile phase. An aliquot of 10 μL was injected into the LC-MS system.
One group of rabbits (n = 18) was orally administered a dose of 3.0 mL·kg^−1 Panax notoginseng extract, while another group of rabbits (n = 18) was orally given 3.0 mL·kg^−1 Panax notoginseng extract combined with Borneol. At 0.5, 1, and 3 h after administration, blood samples were collected from the central ear artery of six rabbits from each group, and the heart, liver, lung, kidney, and brain were immediately removed after animals were sacrificed by decapitation. An accurately weighed amount of tissue (1 g) was collected to be rinsed, dried, minced, and homogenized (400 r·min^−1) in normal saline (1.5 mL). All of the samples were stored at −70°C and were processed prior to analysis with the proposed method as described in Section 2.6.

[3] = 0.5 h, oral Panax notoginseng with Borneol
[4] = 1.0 h, oral Panax notoginseng with Borneol
[5] = 3.0 h, oral Panax notoginseng with Borneol
[6] = Borneol combined with Panax notoginseng, peak levels at 1.0 h

Remaining, Short-term stability ([1]; brain homogenate, QC 0.5 μg·mL^−1, 4°C for 4–24 h): 92.3 ± 9.4% | Remaining, Long-term stability ([1]; brain homogenate, QC 0.5 μg·mL^−1, 8 weeks at −70°C): 101.8 ± 6.8% | Remaining, Freeze-thaw stability ([1]; brain homogenate, QC 0.5 μg·mL^−1, three freeze-thaw cycles): 92.8 ± 6.9% | Remaining, Short-term stability ([1]; brain homogenate, QC 5.0 μg·mL^−1, 4°C for 4–24 h): 98.4 ± 4.4% | Remaining, Long-term stability ([1]; brain homogenate, QC 5.0 μg·mL^−1, 8 weeks at −70°C): 90.0 ± 9.5% | Remaining, Freeze-thaw stability ([1]; brain homogenate, QC 5.0 μg·mL^−1, three freeze-thaw cycles): 92.2 ± 8.5% | Remaining, Short-term stability ([1]; brain homogenate, QC 50.0 μg·mL^−1, 4°C for 4–24 h): 103.5 ± 9.2% | Remaining, Long-term stability ([1]; brain homogenate, QC 50.0 μg·mL^−1, 8 weeks at −70°C): 99.0 ± 5.3% | Remaining, Freeze-thaw stability ([1]; brain homogenate, QC 50.0 μg·mL^−1, three freeze-thaw cycles): 95.2 ± 11.4% | Remaining, Short-term stability ([1]; heart homogenate, QC 0.5 μg·mL^−1, 4°C for 4–24 h): 98.2 ± 6.7% | Remaining, Long-term stability ([1]; heart homogenate, QC 0.5 μg·mL^−1, 8 weeks at −70°C): 103.6 ± 6.5% | Remaining, Freeze-thaw stability ([1]; heart homogenate, QC 0.5 μg·mL^−1, three freeze-thaw cycles): 92.8 ± 6.8% | Remaining, Short-term stability ([1]; heart homogenate, QC 5.0 μg·mL^−1, 4°C for 4–24 h): 94.8 ± 9.5% | Remaining, Long-term stability ([1]; heart homogenate, QC 5.0 μg·mL^−1, 8 weeks at −70°C): 92.9 ± 4.2% | Remaining, Freeze-thaw stability ([1]; heart homogenate, QC 5.0 μg·mL^−1, three freeze-thaw cycles): 102.5 ± 10.6% | Remaining, Short-term stability ([1]; heart homogenate, QC 50.0 μg·mL^−1, 4°C for 4–24 h): 100.3 ± 7.5% | Remaining, Long-term stability ([1]; heart homogenate, QC 50.0 μg·mL^−1, 8 weeks at −70°C): 96.6 ± 6.7% | Remaining, Freeze-thaw stability ([1]; heart homogenate, QC 50.0 μg·mL^−1, three freeze-thaw cycles): 96.7 ± 8.7% | Remaining, Short-term stability ([1]; kidney homogenate, QC 0.5 μg·mL^−1, 4°C for 4–24 h): 92.4 ± 4.3% | Remaining, Long-term stability ([1]; kidney homogenate, QC 0.5 μg·mL^−1, 8 weeks at −70°C): 91.1 ± 5.4% | Remaining, Freeze-thaw stability ([1]; kidney homogenate, QC 0.5 μg·mL^−1, three freeze-thaw cycles): 92.2 ± 7.5% | Remaining, Short-term stability ([1]; kidney homogenate, QC 5.0 μg·mL^−1, 4°C for 4–24 h): 95.8 ± 5.6% | Remaining, Long-term stability ([1]; kidney homogenate, QC 5.0 μg·mL^−1, 8 weeks at −70°C): 94.3 ± 2.8% | Remaining, Freeze-thaw stability ([1]; kidney homogenate, QC 5.0 μg·mL^−1, three freeze-thaw cycles): 95.4 ± 8.9% | Remaining, Short-term stability ([1]; kidney homogenate, QC 50.0 μg·mL^−1, 4°C for 4–24 h): 90.8 ± 3.7% | Remaining, Long-term stability ([1]; kidney homogenate, QC 50.0 μg·mL^−1, 8 weeks at −70°C): 96.8 ± 9.5% | Remaining, Freeze-thaw stability ([1]; kidney homogenate, QC 50.0 μg·mL^−1, three freeze-thaw cycles): 80.9 ± 6.7% | Remaining, Short-term stability ([1]; liver homogenate, QC 0.5 μg·mL^−1, 4°C for 4–24 h): 95.1 ± 3.1% | Remaining, Long-term stability ([1]; liver homogenate, QC 0.5 μg·mL^−1, 8 weeks at −70°C): 92.6 ± 9.1% | Remaining, Freeze-thaw stability ([1]; liver homogenate, QC 0.5 μg·mL^−1, three freeze-thaw cycles): 98.9 ± 7.9% | Remaining, Short-term stability ([1]; liver homogenate, QC 5.0 μg·mL^−1, 4°C for 4–24 h): 94.3 ± 6.7% | Remaining, Long-term stability ([1]; liver homogenate, QC 5.0 μg·mL^−1, 8 weeks at −70°C): 96.6 ± 6.4% | Remaining, Freeze-thaw stability ([1]; liver homogenate, QC 5.0 μg·mL^−1, three freeze-thaw cycles): 103.8 ± 8.2% | Remaining, Short-term stability ([1]; liver homogenate, QC 50.0 μg·mL^−1, 4°C for 4–24 h): 95.4 ± 8.6% | Remaining, Long-term stability ([1]; liver homogenate, QC 50.0 μg·mL^−1, 8 weeks at −70°C): 100.9 ± 5.6% | Remaining, Freeze-thaw stability ([1]; liver homogenate, QC 50.0 μg·mL^−1, three freeze-thaw cycles): 99.0 ± 5.0% | Remaining, Short-term stability ([1]; lung homogenate, QC 0.5 μg·mL^−1, 4°C for 4–24 h): 91.2 ± 5.4% | Remaining, Long-term stability ([1]; lung homogenate, QC 0.5 μg·mL^−1, 8 weeks at −70°C): 97.6 ± 6.8% | Remaining, Freeze-thaw stability ([1]; lung homogenate, QC 0.5 μg·mL^−1, three freeze-thaw cycles): 95.8 ± 9.8% | Remaining, Short-term stability ([1]; lung homogenate, QC 5.0 μg·mL^−1, 4°C for 4–24 h): 96.8 ± 8.3% | Remaining, Long-term stability ([1]; lung homogenate, QC 5.0 μg·mL^−1, 8 weeks at −70°C): 89.8 ± 4.6% | Remaining, Freeze-thaw stability ([1]; lung homogenate, QC 5.0 μg·mL^−1, three freeze-thaw cycles): 91.9 ± 9.3% | Remaining, Short-term stability ([1]; lung homogenate, QC 50.0 μg·mL^−1, 4°C for 4–24 h): 95.6 ± 5.9% | Remaining, Long-term stability ([1]; lung homogenate, QC 50.0 μg·mL^−1, 8 weeks at −70°C): 91.6 ± 9.8% | Remaining, Freeze-thaw stability ([1]; lung homogenate, QC 50.0 μg·mL^−1, three freeze-thaw cycles): 96.9 ± 7.5% | Remaining, Short-term stability ([1]; plasma, QC 0.5 μg·mL^−1, 4°C for 4–24 h): 98.0 ± 6.2% | Remaining, Long-term stability ([1]; plasma, QC 0.5 μg·mL^−1, 8 weeks at −70°C): 100.0 ± 8.7% | Remaining, Freeze-thaw stability ([1]; plasma, QC 0.5 μg·mL^−1, three freeze-thaw cycles): 90.4 ± 5.9% | Remaining, Short-term stability ([1]; plasma, QC 5.0 μg·mL^−1, 4°C for 4–24 h): 96.0 ± 8.4% | Remaining, Long-term stability ([1]; plasma, QC 5.0 μg·mL^−1, 8 weeks at −70°C): 94.0 ± 6.8% | Remaining, Freeze-thaw stability ([1]; plasma, QC 5.0 μg·mL^−1, three freeze-thaw cycles): 92.8 ± 6.4% | Remaining, Short-term stability ([1]; plasma, QC 35.0 μg·mL^−1, 4°C for 4–24 h): 99.8 ± 3.3% | Remaining, Long-term stability ([1]; plasma, QC 35.0 μg·mL^−1, 8 weeks at −70°C): 97.0 ± 5.3% | Remaining, Freeze-thaw stability ([1]; plasma, QC 35.0 μg·mL^−1, three freeze-thaw cycles): 96.6 ± 5.5% | Concentration in brain ([2]; 0.5 h, oral Panax notoginseng): 0.65 ± 0.24 µg/g | Concentration in heart ([2]; 0.5 h, oral Panax notoginseng): 3.90 ± 0.53 µg/g | Concentration in kidney ([2]; 0.5 h, oral Panax notoginseng): 2.85 ± 0.45 µg/g | Concentration in liver ([2]; 0.5 h, oral Panax notoginseng): 1.38 ± 0.54 µg/g | Concentration in lung ([2]; 0.5 h, oral Panax notoginseng): 1.77 ± 0.46 µg/g | Concentration in plasma ([2]; 0.5 h, oral Panax notoginseng): 1670 ± 50 ng/mL | Concentration in brain [2, 3]: 4.02 ± 0.46 µg/g | Concentration in heart [2, 3]: 4.68 ± 0.21 µg/g | Concentration in kidney [2, 3]: 3.98 ± 0.12 µg/g | Concentration in liver [2, 3]: 8.24 ± 0.42 µg/g | Concentration in lung [2, 3]: 5.79 ± 0.29 µg/g | Concentration in plasma [2, 3]: 1620 ± 70 ng/mL | Concentration in brain ([2]; 1.0 h, oral Panax notoginseng): 0.81 ± 0.26 µg/g | Concentration in heart ([2]; 1.0 h, oral Panax notoginseng): 4.26 ± 0.27 µg/g | Concentration in kidney ([2]; 1.0 h, oral Panax notoginseng): 2.74 ± 0.33 µg/g | Concentration in liver ([2]; 1.0 h, oral Panax notoginseng): 1.66 ± 0.28 µg/g | Concentration in lung ([2]; 1.0 h, oral Panax notoginseng): 1.82 ± 0.20 µg/g | Concentration in plasma ([2]; 1.0 h, oral Panax notoginseng): 1290 ± 200 ng/mL | Concentration in brain [2, 4]: 5.58 ± 0.68 µg/g | Concentration in heart [2, 4]: 5.55 ± 0.31 µg/g | Concentration in kidney [2, 4]: 3.38 ± 0.34 µg/g | Concentration in liver [2, 4]: 9.29 ± 0.72 µg/g | Concentration in lung [2, 4]: 9.96 ± 0.66 µg/g | Concentration in plasma [2, 4]: 1460 ± 50 ng/mL | Concentration in brain ([2]; 3.0 h, oral Panax notoginseng): 0.48 ± 0.14 µg/g | Concentration in heart ([2]; 3.0 h, oral Panax notoginseng): 3.31 ± 0.32 µg/g | Concentration in kidney ([2]; 3.0 h, oral Panax notoginseng): 1.94 ± 0.24 µg/g | Concentration in liver ([2]; 3.0 h, oral Panax notoginseng): 0.89 ± 0.12 µg/g | Concentration in lung ([2]; 3.0 h, oral Panax notoginseng): 1.51 ± 0.16 µg/g | Concentration in plasma ([2]; 3.0 h, oral Panax notoginseng): 160 ± 60 ng/mL | Concentration in brain [2, 5]: 3.69 ± 0.84 µg/g | Concentration in heart [2, 5]: 4.59 ± 0.52 µg/g | Concentration in kidney [2, 5]: 2.27 ± 0.28 µg/g | Concentration in liver [2, 5]: 6.87 ± 0.61 µg/g | Concentration in lung [2, 5]: 4.56 ± 0.75 µg/g | Concentration in plasma [2, 5]: 490 ± 20 ng/mL | level in kidney, fold higher than the plasma concentrations ([2]; Borneol combined with Panax notoginseng, at 1.0 h): 2.3 fold | level in brain, fold higher than the plasma concentrations [2, 6]: 3.82 fold | level in liver, fold higher than the plasma concentrations [2, 6]: 6.36 fold | level in lung, fold higher than the plasma concentrations [2, 6]: 6.82 fold
SMILES: CC(C)=CCC[C@](C)(O[C@@H]1O[C@H](CO)[C@@H](O)[C@H](O)[C@H]1O)[C@H]1CC[C@]2(C)[C@@H]1[C@H](O)C[C@@H]1[C@@]3(C)CC[C@H](O)C(C)(C)[C@@H]3[C@@H](O[C@@H]3O[C@H](CO)[C@@H](O)[C@H](O)[C@H]3O[C@@H]3OC[C@@H](O)[C@H](O)[C@H]3O)C[C@]12C [NGR1, notoginsenoside R1]
Noncytotoxic concentration (Caco-2 cells): 500 µM
